Laboratory results taken from patent publication US20200016136A1 (VIIV HEALTHCARE UK (NO. 5) LIMITED, priority 2017, published 2020).

System: NL-RLuc virus (recombinant NL4-3 HIV with Renilla Luciferase gene)
Test: Inhibition of HIV replication (NL-RLuc virus in MT-2 cells, luciferase readout)
Assay type: cell-based, Human immunodeficiency virus (HIV)
Conditions: MT2, 120 h
In short: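 MT-2 cells infected with NL4-3-derived virus carrying Renilla luciferase in place of part of nef, grown 5 days with serial compound dilutions in RPMI 1640/10% FBS. Virus growth read as luciferase expression. EC50 from median effect equation, at least 2 experiments.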

Compound	EC50
Cc1cccc(Cl)c1CN1CCc2cc(-c3c(C(=O)O)nc(C)c([C@H](OC(C)(C)C)C(=O)O)c3N3CCC(C)(C)CC3)ccc2C1 [Example 116, (S)-5-(tert-Butoxy(carboxy)methyl)-3-(2-(2-chloro-6-methylbenzyl)-1,2,3,4-tetrahydroisoquinolin-6-yl)-4-(4,4-dimethylpiperidin-1-yl)-6-methylpicolinic Acid]	4 nM
CC1(C)CCN(c2c(-c3ccc4c(c3)CCN(c3ncnc5c3oc3ccccc35)C4)c(CNCC3CCOCC3)nc(Cl)c2[C@H](OC(C)(C)C)C(=O)O)CC1 [Example 111, (S)-2-(5-(2-(Benzofuro[3,2-d]pyrimidin-4-yl)-1,2,3,4-tetrahydroisoquinolin-6-yl)-2-chloro-4-(4,4-dimethylpiperidin-1-yl)-6-((((tetrahydro-2H-pyran-4-yl)methyl)amino)methyl)pyridin-3-yl)-2-(tert-butoxy)acetic Acid]	0.7 nM
Cc1nc(C)c([C@H](OC(C)(C)C)C(=O)O)c(N2CCC(C)(C)CC2)c1-c1ccc2c(c1)CCN(c1cc(C(=O)O)ncn1)C2 [Example 127, (S)-6-(6-(5-(tert-Butoxy(carboxy)methyl)-4-(4,4-dimethylpiperidin-1-yl)-2,6-dimethylpyridin-3-yl)-3,4-dihydroisoquinolin-2(1H)-yl)pyrimidine-4-carboxylic Acid]	1280 nM
Cc1nc(C)c([C@H](OC(C)(C)C)C(=O)O)c(N2CCC(C)(C)CC2)c1-c1ccc2c(c1)CCN(c1cc(N3CCCCC3)ncn1)C2 [Example 124, (S)-2-(tert-Butoxy)-2-(4-(4,4-dimethylpiperidin-1-yl)-2,6-dimethyl-5-(2-(6-(piperidin-1-yl)pyrimidin-4-yl)-1,2,3,4-tetrahydroisoquinolin-6-yl)pyridin-3-yl)acetic Acid]	17 nM
Cc1nc(CN2CCC2)c(-c2ccc3c(c2)CCN(c2ncnc4c2oc2ccccc24)C3)c(N2CCC(C)(C)CC2)c1[C@H](OC(C)(C)C)C(=O)O [Example 160, (S)-2-(6-(Azetidin-1-ylmethyl)-5-(2-(benzofuro[3,2-d]pyrimidin-4-yl)-1,2,3,4-tetrahydroisoquinolin-6-yl)-4-(4,4-dimethylpiperidin-1-yl)-2-methylpyridin-3-yl)-2-(tert-butoxy)acetic Acid]	20 nM
Cc1nc(C)c([C@H](OC(C)(C)C)C(=O)O)c(N2CCC(C)(C)CC2)c1-c1ccc2c(c1)CCN(c1ccnc(N3CCC(O)CC3)n1)C2 [Example 75, (S)-2-(tert-Butoxy)-2-(4-(4,4-dimethylpiperidin-1-yl)-5-(2-(2-(4-hydroxypiperidin-1-yl)pyrimidin-4-yl)-1,2,3,4-tetrahydroisoquinolin-6-yl)-2,6-dimethylpyridin-3-yl)acetic Acid]	3 nM
CC1(C)CCN(c2c(-c3ccc4c(c3)CCN(c3ncnc5c3oc3ccccc35)C4)c(CNCCS(C)(=O)=O)nc(Cl)c2[C@H](OC(C)(C)C)C(=O)O)CC1 [Example 110, (S)-2-(5-(2-(Benzofuro[3,2-d]pyrimidin-4-yl)-1,2,3,4-tetrahydroisoquinolin-6-yl)-2-chloro-4-(4,4-dimethylpiperidin-1-yl)-6-(((2-(methylsulfonyl)ethyl)amino)methyl)pyridin-3-yl)-2-(tert-butoxy)acetic Acid]	110 nM
Cc1nc(-c2cnn(C)c2C)c(-c2ccc3c(c2)CCN(c2ncnc4c2oc2ccccc24)C3)c(N2CCC(C)(C)CC2)c1[C@H](OC(C)(C)C)C(=O)O [Example 13, (S)-2-(5-(2-(Benzofuro[3,2-d]pyrimidin-4-yl)-1,2,3,4-tetrahydroisoquinolin-6-yl)-6-(1,5-dimethyl-1H-pyrazol-4-yl)-4-(4,4-dimethylpiperidin-1-yl)-2-methylpyridin-3-yl)-2-(tert-butoxy)acetic Acid]	2 nM
Cc1nc(C)c([C@H](OC(C)(C)C)C(=O)O)c(N2CCC(C)(C)CC2)c1-c1ccc2c(c1)CCN(c1ncnc3c1oc1ccc(Cl)cc13)C2 [Example 122, (S)-2-(tert-Butoxy)-2-(5-(2-(8-chlorobenzofuro[3,2-d]pyrimidin-4-yl)-1,2,3,4-tetrahydroisoquinolin-6-yl)-4-(4,4-dimethylpiperidin-1-yl)-2,6-dimethylpyridin-3-yl)acetic Acid]	5 nM
Cc1nc(C)c([C@H](OC(C)(C)C)C(=O)O)c(N2CCC(C)(C)CC2)c1-c1ccc2c(c1)CCN(c1ncnc(N3CCOCC3)n1)C2 [Example 60, (S)-2-(tert-Butoxy)-2-(4-(4,4-dimethylpiperidin-1-yl)-2,6-dimethyl-5-(2-(4-morpholino-1,3,5-triazin-2-yl)-1,2,3,4-tetrahydroisoquinolin-6-yl)pyridin-3-yl)acetic Acid]	0.6 nM
Cc1cc(F)ccc1CN1CCc2cc(-c3c(N)nc(Cl)c([C@H](OC(C)(C)C)C(=O)O)c3N3CCC(C)(C)CC3)ccc2C1 [Example 99, (S)-2-(6-Amino-2-chloro-4-(4,4-dimethylpiperidin-1-yl)-5-(2-(4-fluoro-2-methylbenzyl)-1,2,3,4-tetrahydroisoquinolin-6-yl)pyridin-3-yl)-2-(tert-butoxy)acetic Acid]	4 nM
Cc1nc(C)c([C@H](OC(C)(C)C)C(=O)O)c(N2CCC(C)(C)CC2)c1-c1ccc2c(c1)CCN(c1cc(N3CCOCC3)ncn1)C2 [Example 119, (S)-2-(tert-Butoxy)-2-(4-(4,4-dimethylpiperidin-1-yl)-2,6-dimethyl-5-(2-(6-morpholinopyrimidin-4-yl)-1,2,3,4-tetrahydroisoquinolin-6-yl)pyridin-3-yl)acetic Acid]	5 nM
Cc1nc(C)c([C@H](OC(C)(C)C)C(=O)O)c(N2CCC(C)(C)CC2)c1-c1ccc2c(c1)CCN(c1cc(N3CCC(N4CCN(C)CC4)CC3)ncn1)C2 [Example 136, (S)-2-(tert-Butoxy)-2-(4-(4,4-dimethylpiperidin-1-yl)-2,6-dimethyl-5-(2-(6-(4-(4-methylpiperazin-1-yl)piperidin-1-yl)pyrimidin-4-yl)-1,2,3,4-tetrahydroisoquinolin-6-yl)pyridin-3-yl)acetic Acid]	16 nM
Cc1cccc(Cl)c1CN1CCc2cc(-c3c(NCCN4CCOCC4)nc(C)c([C@H](OC(C)(C)C)C(=O)O)c3N3CCC(C)(C)CC3)ccc2C1 [Example 5, (S)-2-(tert-Butoxy)-2-(5-(2-(2-chloro-6-methylbenzyl)-1,2,3,4-tetrahydroisoquinolin-6-yl)-4-(4,4-dimethylpiperidin-1-yl)-2-methyl-6-((2-morpholinoethyl)amino)pyridin-3-yl)acetic Acid]	2 nM
COc1cccc(-c2cc(N3CCc4cc(-c5c(C)nc(C)c([C@H](OC(C)(C)C)C(=O)O)c5N5CCC(C)(C)CC5)ccc4C3)ncn2)c1 [Example 79, (S)-2-(tert-Butoxy)-2-(4-(4,4-dimethylpiperidin-1-yl)-5-(2-(6-(3-methoxyphenyl)pyrimidin-4-yl)-1,2,3,4-tetrahydroisoquinolin-6-yl)-2,6-dimethylpyridin-3-yl)acetic Acid]	11 nM
CC1(C)CCN(c2c(-c3ccc4c(c3)CCN(c3ncnc5c3oc3ncccc35)C4)cnc(Cl)c2[C@H](OC(C)(C)C)C(=O)O)CC1 [Example 92, (S)-2-(tert-Butoxy)-2-(2-chloro-4-(4,4-dimethylpiperidin-1-yl)-5-(2-(pyrido[3′,2′:4,5]furo[3,2-d]pyrimidin-4-yl)-1,2,3,4-tetrahydroisoquinolin-6-yl)pyridin-3-yl)acetic Acid]	0.6 nM
